Literature values in US20260207579A1, “VITAMIN B SUPPLEMENTATION TO TREAT PITUITARY PARS INTERMEDIA DYSFUNCTION (PPID) IN EQUIDS” (MARS INCORPORATED, priority 2022, published 2026).
Counter-ions that a name gives are not always drawn. Blank lines part the entries; values can stand above or below the molecule they belong to.

Assays:
[1] = tested on: dementia; details: humans with dementia and concurrent vitamin B12 deficiency
[2] = tested on: dopamine production; details: over the long term, mice
[3] = tested on: PPID
[4] = tested on: adult Thoroughbred horses; details: 3 g/day for 6 weeks, exercising adult Thoroughbred horses likely around 500 kg
[5] = 5 g/day, horses
[6] = 3 g/day, mares, mean BW of ~500 kg
[7] = tested on: brain cells; details: species other than the horse
[8] = tested on: horses

Molecule: vitamin B12
effect of supplementation [1]: beneficial

Molecule: NC(=O)c1ccc[n+]([C@@H]2O[C@H](CO)[C@@H](O)[C@H]2O)c1 [nicotinamide riboside]
dopamine production [2]: may downregulate dopamine production

Molecule: CCCN1C[C@H](CSC)C[C@@H]2c3cccc4[nH]cc(c34)C[C@H]21 [pergolide mesylate]
clinical outcome in PPID [3]: clinical improvement

plasma and urine concentrations of NAD+ precursors [5]: increases
Molecule: O=C(O)c1cccnc1 [niacin]
adverse effects [4]: no measured adverse effects
benefits as putative ergogenic aid [4]: no apparent benefits

bioavailability of NAD+ precursors in the follicular fluid [6]: increased
plasma concentrations of NAD+ precursors [6]: no apparent increase
Molecule: O=C(O)c1cccnc1 [NA, nicotinic acid]
intracellular NAD+ levels [7]: increase

Molecule: N[C@@H](Cc1c[nH]c2ccccc12)C(=O)O [Tryptophan, tryptophan]
behavioural effects [8]: both excitatory and sedative effects
toxicity ([8]; high doses): hemolytic anemia and symptoms of respiratory distress
